pKd, pKi: −log10 of the molar value. Several values for one entry are separate records, joined by “and”; a condition that tells them apart may be missing. Equal values may be shown once. Read-outs that look alike come from different tables or passages of the source.
Legend:
α7-nAChR [1] = biological target: T1, α7-nAChR (Rattus norvegicus, UniProt Q05941); experiment: biochemical; format: binding
α3β4-nAChR = biological target: T2, α3β4-nAChR (Rattus norvegicus, UniProt P04757+P12392); experiment: Heteromeric nAChR binding assay, transfected HEK293 membranes, [3H]epibatidine
T2 construct: expressed in transfected cells
T2 sequence (P04757 26-499): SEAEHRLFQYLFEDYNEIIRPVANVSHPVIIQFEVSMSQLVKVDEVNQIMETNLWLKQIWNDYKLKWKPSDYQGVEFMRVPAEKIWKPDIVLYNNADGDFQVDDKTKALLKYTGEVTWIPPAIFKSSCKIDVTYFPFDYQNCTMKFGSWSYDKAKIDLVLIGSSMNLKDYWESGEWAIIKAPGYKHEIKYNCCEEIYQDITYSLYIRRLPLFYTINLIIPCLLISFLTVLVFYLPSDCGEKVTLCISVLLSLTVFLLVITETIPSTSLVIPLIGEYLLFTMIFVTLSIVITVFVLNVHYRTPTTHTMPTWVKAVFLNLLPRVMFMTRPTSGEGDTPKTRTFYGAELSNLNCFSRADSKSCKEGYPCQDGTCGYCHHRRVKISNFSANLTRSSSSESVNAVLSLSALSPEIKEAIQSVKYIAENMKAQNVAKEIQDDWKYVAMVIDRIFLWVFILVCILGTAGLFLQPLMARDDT
T2 sequence (P12392 21-495): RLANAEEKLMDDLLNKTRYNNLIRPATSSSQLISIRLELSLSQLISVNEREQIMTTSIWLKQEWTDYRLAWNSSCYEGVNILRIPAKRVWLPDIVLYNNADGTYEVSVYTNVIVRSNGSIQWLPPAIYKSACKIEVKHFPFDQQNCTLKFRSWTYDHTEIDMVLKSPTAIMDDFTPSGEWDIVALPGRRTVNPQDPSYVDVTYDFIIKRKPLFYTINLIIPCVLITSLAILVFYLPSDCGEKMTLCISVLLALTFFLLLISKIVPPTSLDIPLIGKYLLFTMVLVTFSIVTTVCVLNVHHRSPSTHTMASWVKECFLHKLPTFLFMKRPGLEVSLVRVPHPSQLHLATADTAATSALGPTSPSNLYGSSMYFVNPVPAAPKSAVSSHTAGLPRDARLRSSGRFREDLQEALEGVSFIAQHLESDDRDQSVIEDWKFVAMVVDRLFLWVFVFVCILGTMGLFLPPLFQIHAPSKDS

α4β2-nAChR = α4β2-nAChR (Rattus norvegicus, UniProt P09483+P12390); experiment: as above
α4β2-nAChR, sequence (P09483 31-630): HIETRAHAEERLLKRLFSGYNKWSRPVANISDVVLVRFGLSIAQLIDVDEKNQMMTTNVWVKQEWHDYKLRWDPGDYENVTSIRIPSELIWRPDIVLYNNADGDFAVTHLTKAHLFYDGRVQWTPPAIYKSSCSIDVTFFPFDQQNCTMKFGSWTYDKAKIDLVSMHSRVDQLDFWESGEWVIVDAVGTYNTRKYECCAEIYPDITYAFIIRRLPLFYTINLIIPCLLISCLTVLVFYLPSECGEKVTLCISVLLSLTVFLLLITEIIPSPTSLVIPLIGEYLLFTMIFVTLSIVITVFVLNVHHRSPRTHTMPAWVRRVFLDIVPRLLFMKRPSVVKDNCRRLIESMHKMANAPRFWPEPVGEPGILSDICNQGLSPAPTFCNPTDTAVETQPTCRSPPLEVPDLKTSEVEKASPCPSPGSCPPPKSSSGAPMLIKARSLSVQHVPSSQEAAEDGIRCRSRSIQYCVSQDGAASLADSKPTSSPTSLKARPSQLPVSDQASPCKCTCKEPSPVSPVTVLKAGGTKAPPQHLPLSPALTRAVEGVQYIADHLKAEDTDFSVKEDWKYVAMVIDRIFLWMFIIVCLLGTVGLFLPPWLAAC
α4β2-nAChR, sequence (P12390 25-500): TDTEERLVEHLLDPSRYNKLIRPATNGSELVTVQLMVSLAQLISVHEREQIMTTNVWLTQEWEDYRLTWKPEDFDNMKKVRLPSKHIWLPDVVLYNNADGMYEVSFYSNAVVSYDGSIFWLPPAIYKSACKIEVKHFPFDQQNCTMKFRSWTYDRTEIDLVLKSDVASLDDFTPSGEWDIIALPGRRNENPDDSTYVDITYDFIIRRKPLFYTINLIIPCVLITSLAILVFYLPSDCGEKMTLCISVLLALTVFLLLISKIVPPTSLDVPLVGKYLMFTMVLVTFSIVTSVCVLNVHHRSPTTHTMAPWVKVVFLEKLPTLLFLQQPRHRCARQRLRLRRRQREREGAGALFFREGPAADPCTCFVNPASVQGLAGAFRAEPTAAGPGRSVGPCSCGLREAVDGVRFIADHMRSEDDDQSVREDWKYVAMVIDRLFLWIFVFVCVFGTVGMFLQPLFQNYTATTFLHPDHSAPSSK

α4β4-nAChR = biological target: T3, α4β4-nAChR (Rattus norvegicus, UniProt P09483+P12392); experiment: as above
T3 construct: expressed in transfected cells
T3 sequence (P09483 31-630): as the sequence (P09483 31-630) above
T3 sequence (P12392 21-495): as the sequence (P12392 21-495) above

α7-nAChR [2] = biological target: T4, α7-nAChR (Mus musculus, UniProt P49582); settings: in vivo
T4 sequence (P49582 23-502): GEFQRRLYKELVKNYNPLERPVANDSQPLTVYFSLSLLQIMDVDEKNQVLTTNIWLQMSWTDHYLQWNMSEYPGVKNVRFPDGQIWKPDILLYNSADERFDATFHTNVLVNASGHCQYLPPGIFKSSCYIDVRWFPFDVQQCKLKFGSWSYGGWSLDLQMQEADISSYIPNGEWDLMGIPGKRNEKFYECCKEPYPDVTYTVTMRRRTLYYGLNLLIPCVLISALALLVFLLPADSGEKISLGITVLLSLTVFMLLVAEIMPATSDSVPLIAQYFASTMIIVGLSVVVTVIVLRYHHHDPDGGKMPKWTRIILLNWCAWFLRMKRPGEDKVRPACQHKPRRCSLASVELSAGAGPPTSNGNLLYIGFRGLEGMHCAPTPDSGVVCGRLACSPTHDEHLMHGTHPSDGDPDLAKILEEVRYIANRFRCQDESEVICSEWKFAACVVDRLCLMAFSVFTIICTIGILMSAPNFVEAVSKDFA

Human 5-HT3 [3] = biological target: T5, Human 5-HT3 (Homo sapiens, UniProt P46098); experiment: 5-HT3(h) binding assay, recombinant HEK293 cells, [3H]GR65630
T5 sequence (P46098 24-478): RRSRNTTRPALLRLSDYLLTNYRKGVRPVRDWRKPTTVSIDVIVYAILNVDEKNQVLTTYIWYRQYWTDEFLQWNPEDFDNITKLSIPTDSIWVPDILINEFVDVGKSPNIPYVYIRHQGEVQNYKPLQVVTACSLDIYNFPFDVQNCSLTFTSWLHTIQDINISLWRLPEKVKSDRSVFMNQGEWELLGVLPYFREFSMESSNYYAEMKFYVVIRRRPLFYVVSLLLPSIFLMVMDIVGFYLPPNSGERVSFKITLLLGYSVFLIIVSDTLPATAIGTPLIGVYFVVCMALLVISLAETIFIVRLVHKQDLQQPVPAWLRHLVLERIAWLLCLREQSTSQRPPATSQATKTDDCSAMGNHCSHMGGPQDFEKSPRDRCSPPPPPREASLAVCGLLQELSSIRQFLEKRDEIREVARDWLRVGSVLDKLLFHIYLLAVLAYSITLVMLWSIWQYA

α2β4-nAChR = biological target: T6, α2β4-nAChR (Rattus norvegicus, UniProt P12389+P12392); experiment: Heteromeric nAChR binding assay, transfected HEK293 membranes, [3H]epibatidine
T6 construct: expressed in transfected cells
T6 sequence (P12389 28-511): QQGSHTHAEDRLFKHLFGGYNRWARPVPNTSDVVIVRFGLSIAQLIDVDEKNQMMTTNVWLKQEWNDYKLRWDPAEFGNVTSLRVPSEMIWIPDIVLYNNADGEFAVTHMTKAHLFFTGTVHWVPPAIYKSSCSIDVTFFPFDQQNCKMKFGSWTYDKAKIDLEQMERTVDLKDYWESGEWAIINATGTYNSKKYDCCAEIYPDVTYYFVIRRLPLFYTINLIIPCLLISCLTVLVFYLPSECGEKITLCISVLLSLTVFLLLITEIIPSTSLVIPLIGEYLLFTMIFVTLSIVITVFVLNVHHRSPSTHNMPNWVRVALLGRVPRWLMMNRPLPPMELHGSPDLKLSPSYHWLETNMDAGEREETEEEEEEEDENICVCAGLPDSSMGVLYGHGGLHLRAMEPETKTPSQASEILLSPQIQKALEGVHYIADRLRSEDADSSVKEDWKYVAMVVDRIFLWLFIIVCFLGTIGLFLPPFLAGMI
T6 sequence (P12392 21-495): as the sequence (P12392 21-495) above

α3β2-nAChR = α3β2-nAChR (Rattus norvegicus, UniProt P04757+P12390); experiment: as above
α3β2-nAChR, sequence (P04757 26-499): as the sequence (P04757 26-499) above
α3β2-nAChR, sequence (P12390 25-500): as the sequence (P12390 25-500) above

α2β2-nAChR = α2β2-nAChR (Rattus norvegicus, UniProt P12389+P12390); experiment: as above
α2β2-nAChR, sequence (P12389 28-511): as the sequence (P12389 28-511) above
α2β2-nAChR, sequence (P12390 25-500): as the sequence (P12390 25-500) above

α7-nAChR [4] = biological target: T4, α7-nAChR; experiment: Blockade of [18F]ASEM in CD1 mice with mouse-equivalent doses of clinical α7-nAChR drugs; format: in vivo; set-up: The brains were rapidly removed and dissected on ice; tissue Charles River Laboratories; host or cells: brain of live male CD-1 mice
Human 5-HT3 [5] = biological target: T5, Human 5-HT3; settings: read-out: KD of radiotracer, 5-HT3; cited from earlier work
α7-nAChR [6] = biological target: T4, α7-nAChR; set-up: The brains were rapidly removed and dissected on ice; tissue Charles River Laboratories; host or cells: brain of live male CD-1 mice; species or system CD-1 mice; settings: in vivo
α7-nAChR [7] = biological target: T4, α7-nAChR; settings: in vivo; remark: listed apart in the source
α7-nAChR [8] = biological target: T4, α7-nAChR; settings: drugs 2 mg/kg sc, 10 min before radiotracer, 90 min
α7-nAChR [9] = biological target: T1, α7-nAChR; settings: read-out: KD of radiotracer, α7-nAChR; cited from earlier work
[10] = stably transfected HEK293 cells, [3H]epibatidine (0.5 nM)

T1 sequence (Q05941 23-502): as the sequence (P49582 23-502) above, with T402A counted along it

Compound: O=S1(=O)c2cc(F)ccc2-c2ccc(N3CCN4CCC3CC4)cc21 [Compound 7b, 4-(7-Fluorodibenzo[b,d]thiophen-3-yl)-1,4-diazabicyclo-[3.2.2]nonane 5,5-Dioxide]
- pKi (α7-nAChR [1]; read-out: Ki α7-nAChR): 8.99 and 8.86

Compound: O=S1(=O)c2ccc(F)cc2-c2ccc(N3CCN4CCC3CC4)cc21 [Compound 7c, 7-(1,4-Diazabicyclo[3.2.2]nonan-4-yl)-2-fluorodibenzo[b,d]-thiophene 5,5-Dioxide]
- pKi (α3β4-nAChR; [10]): 5.30
- selectivity α7/α4β2 (α4β2-nAChR): 663
- pKi (α4β2-nAChR; [10]): 6.05
- pKi (α4β4-nAChR; [10]): 5.52
- pKi (α7-nAChR [1]; Ki α7-nAChR): 8.87
- pKi (α7-nAChR [1]; Ki α7-nAChR (text)): 8.89
- pKi (α7-nAChR [1]; read-out: Ki α7-nAChR): 8.88
- behavioral / locomotor activity changes (α7-nAChR [2]): Neither behavioral nor locomotor activity changes were observed
- selectivity α7/5HT3 (Human 5-HT3 [3]): 378
- pKi (Human 5-HT3 [3]; Human 5-HT3 recombinant/HEK293 cells, [3H]GR65630 (0.35 nM)): 6.30
- pKi (α2β4-nAChR; [10]): 5.10
- pKi (α3β2-nAChR; [10]): 5.70
- pKi (α2β2-nAChR; [10]): 6.00

Compound: O=S1(=O)c2ccccc2-c2ccc(N3CCN4CCC3CC4)c(F)c21 [Compound 7d, 3-(1,4-Diazabicyclo[3.2.2]nonan-4-yl)-4-fluorodibenzo[b,d]-thiophene 5,5-Dioxide]
- pKi (α3β4-nAChR): 5.52
- pKi (α4β2-nAChR): 6.85
- selectivity α7/α4β2 (α4β2-nAChR): 66
- pKi (α4β4-nAChR): 6.00
- pKi (α7-nAChR [1]; read-out: Ki α7-nAChR): 8.74 and 8.61
- pKi (α2β4-nAChR): 6.08
- pKi (α3β2-nAChR): 6.17
- pKi (α2β2-nAChR): 6.53

Compound: O=S1(=O)c2ccccc2-c2c(N3CCN4CCC3CC4)ccc(F)c21 [Compound 7e, 1-(1,4-Diazabicyclo[3.2.2]nonan-4-yl)-4-fluorodibenzo[b,d]-thiophene 5,5-Dioxide]
- pKi (α3β4-nAChR; [10]): 6.58
- selectivity α7/α4β2 (α4β2-nAChR): 210
- pKi (α4β2-nAChR; [10]): 5.40
- pKi (α4β4-nAChR; [10]): 6.60
- pKi (α7-nAChR [1]; read-out: Ki α7-nAChR): 7.75 and 7.69
- pKi (α2β4-nAChR; [10]): 6.25
- pKi (α3β2-nAChR; [10]): 5.70

Compound: O=[N+]([O-])c1cccc2c1S(=O)(=O)c1cc(N3CCN4CCC3CC4)ccc1-2 [Compound 10, 3-(1,4-Diazabicyclo[3.2.2]nonan-4-yl)-6-nitrodibenzo[b,d]-thiophene 5,5-Dioxide]
- pKi (α7-nAChR [1]; Ki α7-nAChR): 9.46
- pKi (α7-nAChR [1]; read-out: Ki α7-nAChR): 9.47

Compound: O=[N+]([O-])c1ccc2c(c1)-c1ccc(N3CCN4CCC3CC4)cc1S2(=O)=O [Compound 11, 7-(1,4-Diazabicyclo[3.2.2]nonan-4-yl)-2-nitrodibenzo[b,d]-thiophene 5,5-Dioxide]
- pKi (α7-nAChR [1]; read-out: Ki α7-nAChR): 8.47 and 8.21

Compound: O=S1(=O)c2cc(N3CCN4CCC3CC4)ccc2-c2cccc(I)c21 [Compound 14, 3-(1,4-Diazabicyclo[3.2.2]nonan-4-yl)-6-iododibenzo[b,d]-thiophene 5,5-Dioxide]
- pKi (α7-nAChR [1]; read-out: Ki α7-nAChR): 9.03

Compound: O=S1(=O)c2ccc(I)cc2-c2ccc(N3CCN4CCC3CC4)cc21 [Compound 15, 7-(1,4-Diazabicyclo[3.2.2]nonan-4-yl)-2-iododibenzo[b,d]-thiophene 5,5-Dioxide]
- pKi (α3β4-nAChR): 5.05
- pKi (α4β2-nAChR): 6.32
- selectivity α7/α4β2 (α4β2-nAChR): 63
- pKi (α4β4-nAChR): 5.30
- pKi (α7-nAChR [1]; read-out: Ki α7-nAChR): 8.19 and 8.06
- pKi (α2β4-nAChR): 5.22
- pKi (α3β2-nAChR): 6.00
- pKi (α2β2-nAChR): 6.11

Compound: COc1ccc(/C=C2\CCCN=C2c2cccnc2)c(OC)c1 [DMXB-A, Dimethoxybenzylidene anabaseine]
- blockade of [18F]ASEM binding (α7-nAChR [4]; 3 mg/kg, cortex): 40%
- blockade of [18F]ASEM binding (α7-nAChR [4]; 3 mg/kg, hippocampus): 28%
- blockade of [18F]ASEM binding (α7-nAChR [4]; 10 mg/kg, hippocampus, cortex, subcolliculus): 50-70%
- blockade of [18F]ASEM binding (α7-nAChR [4]; 25 mg/kg, hippocampus, cortex, superior and inferior colliculus): 50-60%
- blockade of [18F]ASEM binding (α7-nAChR [4]; 0.1, 0.3, and 1 mg/kg): did not show significant blockade

Compound: Cc1[nH]cnc1CCC(=O)c1cn(C)c2ccccc12 [[^3H]GR65630]
- pKd (Human 5-HT3 [5]): 9.30

Compound: O=S1(=O)c2ccc([18F])cc2-c2ccc(N3CCN4CCC3CC4)cc21 [[^18F]7c, 4-(8-[^18F]fluorodibenzo[b,d]thiophen-3-yl)-1,4-diazabicyclo[3.2.2]nonane 5,5-dioxide]
- Approximate BPND, Coll (α7-nAChR [6]): 2.0 ± 0.5
- Approximate BPND, Ctx (α7-nAChR [6]): 2.0 ± 0.3
- Approximate BPND, Hipp (α7-nAChR [6]): 3.1 ± 0.7
- ratios of tissues to cerebellum (α7-nAChR [6]; iv): 4.5
- pKi (α7-nAChR [1]; Ki α7-nAChR (text)): 8.89
- baseline-to-blockade ratio (α7-nAChR [2]): 5
- specific binding value (α7-nAChR [2]): 80%

Compound: O=c1cccc2n1C[C@@H]1CNC[C@H]2C1 [cytisine]
- blockade of [18F]7a accumulation in mouse brain (α7-nAChR [7]): insignificant reduction of radioactivity accumulation in all regions studied

Compound: CN1CCCC1c1cccnc1 (stereo not shown) [nicotine]
- blockade of [18F]7a accumulation in mouse brain (α7-nAChR [7]): significant blockade in all regions except the nAChR-poor cerebellum

Compound: Cc1nccn1CC1CCc2c(c3ccccc3n2C)C1=O (stereo not shown) [ondansetron]
- effect on accumulation of [18F]7a in mouse brain (α7-nAChR [8]): absence of blockade

Compound: [^125I]α-bungarotoxin
- pKd (α7-nAChR [9]): 9.15
